{"source": "patent US4200638A", "about": "“Indole derivatives and therapeutically acting drugs” (Omnium Chimique Societe Anonyme, priority 1977, dated 1980)", "key": {"[1]": {"assay": "Acute toxicity (LD50, method of Lichtfield and Wilcoxon)", "conditions": "mouse, in vivo, mice", "experimental": "The compounds of the invention were administered by intragastric or by intravenous route to Charles River stock mice. The lethal doses for 50% (LD50) were determined graphically according to the method of Lichtfield and Wilcoxon (J.Pharmacol.Exp. Therap. […], 96, 99)."}, "[2]": {"test_system": "Charles River stock mice", "assay": "Hypobaric anoxia test on mice (survival time)", "assay_type": "in vivo", "experimental": "Charles River stock mice of the same sex, weighting about 20±2 g are shared into three lots of 10 animals each. The lots 1 and 2 comprise treated animals, i.e. those having received either a substance to be tested. The third lot comprises control animals.\nThe compounds examined are administered p.o. 30 minutes before the experiment.\nThe animals are placed in an atmosphere improverished in oxygen by creating a partial vacuum (190 mm Hg, corresponding to 5.25% oxygen), in about 30 seconds.\nThe survival time of the mice is measured with a chronometer. Said time is increased by the agents capable of enhancing oxygenation of tissues and more particularly brain oxygenation.\nUnder the above described conditions, the dose which provides a 50% increase of the average survival time of the animals may be expressed as the 50% effective dose (here abbreviated as ED50)."}, "[3]": {"test_system": "vertebral flow rate", "assay": "Vertebral flow rate in anesthetized dogs", "assay_type": "in vivo", "conditions": "5.5 mg/kg i.v.", "experimental": "(§1) In addition, a substantial increase of vertebral flow rate was noticed upon dogs previously anesthetized with sodium pentobarbital (30 mg/kg i.v.). More particularly a does of 5.5 mg/kg i.v. of N-ethylchanodesethylapovincamine causes a 50 to 100% increase of vertebral flow rate. Said effect on the flow rate is selective, the increase of femoral flow rate being negligible."}, "[4]": {"test_system": "femoral flow rate", "assay": "Femoral flow rate in anesthetized dogs", "assay_type": "in vivo", "conditions": "5.5 mg/kg i.v.; dogs anesthetized with sodium pentobarbital (30 mg/kg i.v.)", "experimental": "as §1"}}}
{"smiles": "CCN1CCc2c3n(c4ccccc24)C(C(=O)OC)=CCC31", "note": "(stereo not drawn) [N-ethylchanodesethylapovincamine]", "values": [{"measurement": "LD50", "setting": "[1]; iv", "result": 55, "unit": "mg/kg"}, {"measurement": "LD50", "setting": "[1]; po, p.o. (intragastric)", "result": 1120, "unit": "mg/kg"}, {"measurement": "ED50", "setting": "[2]; Mus musculus, po, p.o. 30 minutes before the experiment, 190 mm Hg, corresponding to 5.25% oxygen, read-out: ED50 (dose which provides a 50% increase of the average survival time)", "result": 225, "unit": "mg/kg"}, {"measurement": "LD50/ED50", "setting": "[2]; p.o.", "result": 5}, {"measurement": "effect on the flow rate (vertebral versus femoral)", "setting": "[3]", "result": "selective"}, {"measurement": "increase of femoral flow rate", "setting": "[4]", "result": "negligible"}]}
